One data set addresses T1, OATP1B1 (Homo sapiens, UniProt Q9Y6L6).
T1 sequence (Q9Y6L6 1-691): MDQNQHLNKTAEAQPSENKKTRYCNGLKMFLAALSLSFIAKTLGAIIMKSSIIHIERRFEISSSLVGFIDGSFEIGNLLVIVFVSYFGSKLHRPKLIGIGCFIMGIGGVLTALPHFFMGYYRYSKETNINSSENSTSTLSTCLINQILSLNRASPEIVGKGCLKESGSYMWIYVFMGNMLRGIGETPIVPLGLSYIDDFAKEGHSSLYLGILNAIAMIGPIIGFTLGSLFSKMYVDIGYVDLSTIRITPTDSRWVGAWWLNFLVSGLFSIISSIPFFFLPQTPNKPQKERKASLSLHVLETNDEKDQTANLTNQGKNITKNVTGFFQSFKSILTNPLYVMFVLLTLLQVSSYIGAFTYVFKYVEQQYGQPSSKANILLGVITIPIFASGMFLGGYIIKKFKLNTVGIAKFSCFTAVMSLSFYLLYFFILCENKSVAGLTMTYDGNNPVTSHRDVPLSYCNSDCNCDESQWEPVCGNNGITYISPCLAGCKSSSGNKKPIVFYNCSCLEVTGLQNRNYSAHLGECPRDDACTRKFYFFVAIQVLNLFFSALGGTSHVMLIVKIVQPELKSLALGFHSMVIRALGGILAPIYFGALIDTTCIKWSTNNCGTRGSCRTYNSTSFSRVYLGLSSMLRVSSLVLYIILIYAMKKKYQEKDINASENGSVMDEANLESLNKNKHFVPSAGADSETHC
The note with it: 3 min; for Inhibition of cellular uptake by RIF, OATP1B1-overexpressing cells: 20 μM RIF, BUP 5 μM, OHB 10 μM, TB 20 μM, EB 30 μM; for Apparent Vmax: net cellular uptake, CHO/OATP1B1-overexpressing cells, mean ± SD.

The target of another data set is P-gp (Homo sapiens, UniProt P08183). Nature of the data set: Plasma membrane vesicle transport assay, P-gp vesicles. Format: in vitro ADME. The note with it: for Difference in P-gp vesicle uptake between ATP and AMP: 10 μM, 1 min (Fig. 9).
Sequence of P-gp (P08183 whole entry): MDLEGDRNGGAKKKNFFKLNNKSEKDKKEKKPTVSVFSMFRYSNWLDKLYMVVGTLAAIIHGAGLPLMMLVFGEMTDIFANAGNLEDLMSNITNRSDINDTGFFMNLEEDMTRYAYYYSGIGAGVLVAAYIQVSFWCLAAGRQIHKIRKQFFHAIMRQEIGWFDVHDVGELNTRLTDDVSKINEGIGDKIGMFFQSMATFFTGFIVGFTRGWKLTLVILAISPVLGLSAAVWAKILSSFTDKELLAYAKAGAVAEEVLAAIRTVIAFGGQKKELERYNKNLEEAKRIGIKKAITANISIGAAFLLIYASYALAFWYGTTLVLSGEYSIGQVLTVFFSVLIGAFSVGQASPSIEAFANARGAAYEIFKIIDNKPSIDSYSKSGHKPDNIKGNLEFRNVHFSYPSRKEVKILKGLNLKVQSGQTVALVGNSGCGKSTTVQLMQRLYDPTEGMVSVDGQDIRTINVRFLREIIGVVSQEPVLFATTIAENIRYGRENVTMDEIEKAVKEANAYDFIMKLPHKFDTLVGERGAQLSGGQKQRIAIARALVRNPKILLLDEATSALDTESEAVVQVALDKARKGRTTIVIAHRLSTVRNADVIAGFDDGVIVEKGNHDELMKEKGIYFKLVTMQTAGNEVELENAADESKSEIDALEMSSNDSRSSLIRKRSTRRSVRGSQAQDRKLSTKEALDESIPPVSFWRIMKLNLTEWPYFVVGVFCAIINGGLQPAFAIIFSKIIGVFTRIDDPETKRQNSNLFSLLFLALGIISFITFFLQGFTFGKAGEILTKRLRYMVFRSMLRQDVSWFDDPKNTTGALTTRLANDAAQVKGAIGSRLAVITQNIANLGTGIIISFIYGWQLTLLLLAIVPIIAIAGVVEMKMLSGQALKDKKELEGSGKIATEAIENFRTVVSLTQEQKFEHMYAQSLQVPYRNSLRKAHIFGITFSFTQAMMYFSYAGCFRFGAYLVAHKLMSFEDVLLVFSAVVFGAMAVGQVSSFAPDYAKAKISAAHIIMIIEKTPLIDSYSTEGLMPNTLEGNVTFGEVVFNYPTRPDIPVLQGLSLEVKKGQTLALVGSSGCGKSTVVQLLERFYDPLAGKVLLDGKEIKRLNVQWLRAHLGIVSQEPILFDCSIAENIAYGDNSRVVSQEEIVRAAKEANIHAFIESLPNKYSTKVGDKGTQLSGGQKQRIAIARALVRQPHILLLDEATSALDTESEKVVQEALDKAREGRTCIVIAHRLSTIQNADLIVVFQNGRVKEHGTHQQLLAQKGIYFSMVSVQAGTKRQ
The target in the next data set is MRP2 (Homo sapiens, UniProt Q92887). Nature of the data set: Plasma membrane vesicle transport assay, MRP2 vesicles. The note with it: for Difference in MRP2 vesicle uptake between ATP and AMP: 10 μM, 1 min (Fig. 9).
Sequence of MRP2 (Q92887 whole entry): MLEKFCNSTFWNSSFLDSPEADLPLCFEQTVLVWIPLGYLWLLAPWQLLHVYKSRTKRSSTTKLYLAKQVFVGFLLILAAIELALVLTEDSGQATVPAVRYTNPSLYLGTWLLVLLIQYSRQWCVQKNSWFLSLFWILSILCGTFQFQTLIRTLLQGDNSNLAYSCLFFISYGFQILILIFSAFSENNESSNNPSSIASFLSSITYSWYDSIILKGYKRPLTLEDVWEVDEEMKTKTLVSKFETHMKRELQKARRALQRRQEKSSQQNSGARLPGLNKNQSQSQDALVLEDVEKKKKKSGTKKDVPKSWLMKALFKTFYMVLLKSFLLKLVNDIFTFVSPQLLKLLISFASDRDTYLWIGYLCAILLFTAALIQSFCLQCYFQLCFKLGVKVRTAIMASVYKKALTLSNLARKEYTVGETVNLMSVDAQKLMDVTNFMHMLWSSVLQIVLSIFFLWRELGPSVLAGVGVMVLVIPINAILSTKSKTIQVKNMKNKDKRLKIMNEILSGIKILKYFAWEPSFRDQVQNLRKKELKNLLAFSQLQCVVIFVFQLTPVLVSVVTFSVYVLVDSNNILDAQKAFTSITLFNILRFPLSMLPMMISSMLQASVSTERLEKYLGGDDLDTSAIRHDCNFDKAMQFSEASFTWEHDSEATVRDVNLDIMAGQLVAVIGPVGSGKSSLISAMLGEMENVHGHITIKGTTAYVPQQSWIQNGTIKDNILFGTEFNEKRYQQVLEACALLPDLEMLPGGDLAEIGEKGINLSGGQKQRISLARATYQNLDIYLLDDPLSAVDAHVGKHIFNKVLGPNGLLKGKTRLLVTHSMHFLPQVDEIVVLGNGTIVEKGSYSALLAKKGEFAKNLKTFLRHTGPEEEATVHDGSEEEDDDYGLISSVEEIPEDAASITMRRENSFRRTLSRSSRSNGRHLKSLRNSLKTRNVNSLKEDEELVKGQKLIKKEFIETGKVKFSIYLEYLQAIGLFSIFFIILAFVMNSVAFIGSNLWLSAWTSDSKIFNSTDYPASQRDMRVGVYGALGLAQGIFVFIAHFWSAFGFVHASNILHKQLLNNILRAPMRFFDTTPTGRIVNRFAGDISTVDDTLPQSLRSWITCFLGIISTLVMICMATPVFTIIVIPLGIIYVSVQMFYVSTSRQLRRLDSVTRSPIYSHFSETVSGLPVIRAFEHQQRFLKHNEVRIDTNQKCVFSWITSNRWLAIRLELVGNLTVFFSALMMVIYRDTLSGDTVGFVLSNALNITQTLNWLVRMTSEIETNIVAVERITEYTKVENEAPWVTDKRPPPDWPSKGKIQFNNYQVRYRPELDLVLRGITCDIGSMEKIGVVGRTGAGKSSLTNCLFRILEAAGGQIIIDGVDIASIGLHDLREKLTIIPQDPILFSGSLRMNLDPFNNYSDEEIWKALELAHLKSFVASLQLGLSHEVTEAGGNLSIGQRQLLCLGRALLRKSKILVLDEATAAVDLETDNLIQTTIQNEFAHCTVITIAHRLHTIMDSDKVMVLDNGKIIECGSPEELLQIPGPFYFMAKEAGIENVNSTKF
For another data set, the target named is T2, OCT1 (Homo sapiens, UniProt O15245).
T2 sequence (O15245 1-554): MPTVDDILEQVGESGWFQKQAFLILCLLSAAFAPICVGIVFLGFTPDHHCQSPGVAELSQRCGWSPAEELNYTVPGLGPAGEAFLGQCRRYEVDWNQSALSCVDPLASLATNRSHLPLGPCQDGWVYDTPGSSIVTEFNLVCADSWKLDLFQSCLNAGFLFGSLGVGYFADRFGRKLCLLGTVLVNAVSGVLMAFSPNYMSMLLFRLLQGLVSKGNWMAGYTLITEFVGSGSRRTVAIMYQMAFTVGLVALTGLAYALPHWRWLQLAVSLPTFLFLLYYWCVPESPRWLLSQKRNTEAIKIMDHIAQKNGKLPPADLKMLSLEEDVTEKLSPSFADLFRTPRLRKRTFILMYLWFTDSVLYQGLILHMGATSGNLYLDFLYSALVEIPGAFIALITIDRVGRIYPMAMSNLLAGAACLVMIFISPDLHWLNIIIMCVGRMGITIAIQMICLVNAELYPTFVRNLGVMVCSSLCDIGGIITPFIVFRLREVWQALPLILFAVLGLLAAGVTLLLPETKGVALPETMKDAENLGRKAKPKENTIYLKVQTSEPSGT
Briefly: Cellular uptake assay, HEK/OCT1 vs HEK empty vector cells.

The conditions of data set [1]: ref [14], [15]; cited from earlier work.
The target in a further data set is T3, OATP2B1 (Homo sapiens, UniProt O94956).
T3 sequence (O94956 1-709): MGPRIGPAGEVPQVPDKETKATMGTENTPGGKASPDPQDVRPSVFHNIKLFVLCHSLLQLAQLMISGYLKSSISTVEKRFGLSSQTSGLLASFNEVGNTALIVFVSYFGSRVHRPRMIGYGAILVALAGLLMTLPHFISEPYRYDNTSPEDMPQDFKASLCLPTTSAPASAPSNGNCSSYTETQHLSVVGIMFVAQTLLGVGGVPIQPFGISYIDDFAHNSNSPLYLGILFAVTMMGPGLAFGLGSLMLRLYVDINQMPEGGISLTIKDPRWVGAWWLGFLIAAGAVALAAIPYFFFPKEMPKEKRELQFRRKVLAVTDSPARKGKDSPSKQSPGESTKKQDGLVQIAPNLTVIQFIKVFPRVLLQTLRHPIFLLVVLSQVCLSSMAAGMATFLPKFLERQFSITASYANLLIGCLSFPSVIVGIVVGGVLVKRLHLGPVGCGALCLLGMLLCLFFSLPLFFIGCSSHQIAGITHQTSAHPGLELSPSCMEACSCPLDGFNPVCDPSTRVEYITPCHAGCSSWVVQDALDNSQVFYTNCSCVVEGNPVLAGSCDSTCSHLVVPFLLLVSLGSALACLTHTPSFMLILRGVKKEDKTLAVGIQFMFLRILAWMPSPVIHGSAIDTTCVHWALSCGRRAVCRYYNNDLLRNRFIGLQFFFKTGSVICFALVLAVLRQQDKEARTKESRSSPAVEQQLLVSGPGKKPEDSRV
The following applies: 3 min; for Inhibition of cellular uptake by RIF, OATP2B1-overexpressing cells: 20 μM RIF, BUP 5 μM, OHB 30 μM, TB 20 μM, EB 100 μM; for Apparent Vmax / Km: net cellular uptake, HEK/OATP2B1-overexpressing cells, mean ± SD; for Km: read-out: Apparent Km.

The structures appear in SMILES notation.

Consider 3 compounds from publication PMC7451048 (Drug metabolism letters, 2019).

Regarding `C[C@H](NC(C)(C)C)[C@@H](O)c1cccc(Cl)c1` [TB, Threohydrobupropion], at OATP1B1, the “Inhibition of cellular uptake by RIF, OATP1B1-overexpressing cells” value (“Inhibition … OATP1B1-overexpressing cells” for short) is “no statistically significant differences” and the “Apparent Vmax” value was determined as 1351±55 pmol/mg protein/min. Further, at P-gp, the “Substrate of P-gp (conclusion)” value was “not substrates”; the “Difference in P-gp vesicle uptake between ATP and AMP” value is “No significant differences”. Besides, on MRP2, the “Substrate of MRP2 (conclusion)” value was “not substrates”; the “Difference in MRP2 vesicle uptake between ATP and AMP” value is on record as “No significant differences”. Moreover, the “Substrate of OCT1 (conclusion)” value on OCT1 is recorded as “not substrates”. In data set [1], the “Pharmacological activity relative to BUP” value is listed as 20%. Moreover, at OATP2B1, the “Inhibition of cellular uptake by RIF, OATP2B1-overexpressing cells” value (“Inhibition … OATP2B1-overexpressing cells” below) is “no statistically significant differences”; the “Apparent Vmax” value was determined as 1368±72 pmol/mg protein/min; the Km worked out at 53 ± 9 µM.
For `C[C@H]1NC(C)(C)CO[C@]1(O)c1cccc(Cl)c1` [OHB, Hydroxybupropion], at OATP1B1, the “Inhibition … OATP1B1-overexpressing cells” value was “no statistically significant differences” and the “Apparent Vmax” value was determined as 1423 ± 49 pmol/mg protein/min. In addition, at P-gp, the “Substrate of P-gp (conclusion)” value is “not substrates”; the “Difference in P-gp vesicle uptake between ATP and AMP” value is “No significant differences”. Besides, at MRP2, the “Substrate of MRP2 (conclusion)” value was “not substrates”; the “Difference in MRP2 vesicle uptake between ATP and AMP” value is “No significant differences”. Besides, the “Substrate of OCT1 (conclusion)” value on OCT1 was “not substrates”. Also, the “Pharmacological activity relative to BUP” value in data set [1] is listed as 50–100%. For the same compound, at OATP2B1, the “Inhibition … OATP2B1-overexpressing cells” value was “no statistically significant differences”; the “Apparent Vmax” value came to 1641±98 pmol/mg protein/min; the Km worked out at 74 ± 12 µM.
As to `CC(NC(C)(C)C)C(O)c1cccc(Cl)c1` (stereo not drawn) [EB, Erythrohydrobupropion], on OATP1B1, the “Inhibition … OATP1B1-overexpressing cells” value is “no statistically significant differences” and the “Apparent Vmax” value amounted to 1806±133 pmol/mg protein/min. At P-gp, the “Substrate of P-gp (conclusion)” value was “not substrates”; the “Difference in P-gp vesicle uptake between ATP and AMP” value is recorded as “No significant differences”. For the same compound, on MRP2, the “Substrate of MRP2 (conclusion)” value is reported as “not substrates”; the “Difference in MRP2 vesicle uptake between ATP and AMP” value is “No significant differences”. Also, on OCT1, the “Substrate of OCT1 (conclusion)” value is recorded as “not substrates”. Further, the “Pharmacological activity relative to BUP” value in data set [1] is on record as 20%. On OATP2B1, the “Inhibition … OATP2B1-overexpressing cells” value is recorded as “no statistically significant differences”; the “Apparent Vmax” value stood at 1752±192 pmol/mg protein/min; the Km worked out at 192 ± 35 µM.
